# Results: US20060252725A1, “Use of prebiotics for preventing or treating oxidation stress” (priority 2002, published 2006)
# Legend:
# Type in all cases: in vivo, rat (Wistar-Han)
# lipid peroxidation [1] = assay: Plasma TBARS in rats after 4 weeks of diet
# Method: (§1) 40 weaned male rats of the Wistar-Han type (IFFA-CREDO; L'Arbresle, France) 6 week old and weighing approximately 150 g were used. The rats were placed in cages with a wire mesh back in a temperature-controlled room (22° C.) with day/night cycles of 12 hours. The animals were treated according to the recommendations of the INRA Ethics Committee, decree No. 87-848.
# (§2) First of all the rats were fed following a semi-purified starch-based diet for 7 days: They were then randomly divided into 4 groups of 10 rats: one starch group (A), one fructose group (F), one starch+FOS group (A/FOS) and one fructose+FOS group (F/FOS). They then followed their appropriate diet for 4 weeks. […]
# (§3) The FOS (Raftilose® P95) were obtained from ORAFTI, Thienen, Belgium. They were introduced into the food gradually in order to avoid diarrhoea which could occur in response to too rapid an administration of large quantities of this compound. […]
# (§4) 4 days before sacrifice, the animals were housed individually in stainless steel cages with ad libitum access to the water and food. Urine-samples were recovered 24 hours before sacrifice in 50 ml graduated tubes, the volumes were precisely measured, the samples were then centrifuged and kept at −80° C. until analysis. […]
# (§5) The levels of plasma TBARS were determined by spectrofluorometry on an LS 5 device (Perkin Elmer, Norwalk, Conn., USA). […]
# lipid peroxidation [2] = assay: Urinary TBARS in rats after 4 weeks of diet; details: diet for 4 weeks
# Method: as §1, §2, §3, §4, §5
# heart lipids = assay: Heart TBARS: susceptibility of heart lipids to FeSO4-ascorbate induced peroxidation; details: rats, diet for 4 weeks
# Method: as §1, §2, §3, §4, §5
# [3] = Plasma triglyceride concentration in rats after 4 weeks of diet; details: diet for 4 weeks, average of 10 animals ± standard deviation
# Method: as §1
# (§6) First of all the rats were fed following a semi-purified starch-based diet for 7 days: They were then randomly divided into 4 groups of 10 rats: one starch group (A), one fructose group (F), one starch+FOS group (A/FOS) and one fructose+FOS group (F/FOS). They then followed their appropriate diet for 4 weeks.
# (§7) The food and distilled water were provided ad libitum. The composition of the food rations was as follows (in g/kg):
# as §3, §4
# [4] = Plasma vitamin E concentration and vitamin E/triglycerides ratio in rats after 4 weeks of diet; details: diet for 4 weeks
# Method: as §1, §6, §7
# The FOS (Raftilose® P95) were obtained from ORAFTI, Thienen, Belgium. They were introduced into the food gradually in order to avoid diarrhoea which could occur in response to too rapid an administration of large quantities of this compound. Raftilose® P95 is a mixture of Glucosyl-(Fructosyl)n-Fructose (64%) and of (Fructosyl)m-Fructose (36%) with average degrees of polymerization of 4.8.
# 4 days before sacrifice, the animals were housed individually in stainless steel cages with ad libitum access to the water and food. Urine-samples were recovered 24 hours before sacrifice in 50 ml graduated tubes, the volumes were precisely measured, the samples were then centrifuged and kept at −80° C. until analysis. At the time of sacrifice the rats were weighed, then anesthetized using sodium pentobarbital (intra-peritoneal injection at 40 mg/kg) and killed. […]
# The plasma concentrations of vitamin E were determined by reversed-phase high performance liquid chromatography on a Kontron series 400 device (Kontron St Quentin en Yvelines, France) using a hexane extract. α-tocopherol acetate (Sigma) was added to the samples as internal control. […] The compounds were detected by UV (292 nm) then quantified with internal and external calibrations using control solutions.
# [5] = Fructose vs Starch group, Fructose+FOS vs Fructose group
smiles,measurement,setting,value
O=C(CO)[C@@H](O)[C@H](O)[C@H](O)CO [Fructose],Plasma TBARS,"lipid peroxidation [1]; diet ad libitum for 4 weeks, FOS 100 g/kg diet, sugar 650 or 550 g/kg, average of 10 animals ± standard deviation",2.14 ± 0.07 nmol/mL
same,"Plasma TBARS, comparison between diet groups","lipid peroxidation [1]; diet for 4 weeks, Fructose vs Starch group, Fructose+FOS vs Fructose group",significantly higher
same,"Urinary TBARS, comparison between diet groups",lipid peroxidation [2]; [5],significantly higher
same,Urinary TBARS,"lipid peroxidation [2]; urine of 24 hours, average of 10 animals ± standard deviation",21.97 ± 1.58 nmol/24 h
same,"Heart TBARS, comparison between diet groups",heart lipids; [5],significantly higher
same,Heart TBARS,"heart lipids; heart homogenate, FeSO4 (2 μmol/l)-ascorbate (50 μmol/l), 30 minutes at 37° C., average of 10 animals ± standard deviation",98.8 ± 6.5 nmol/g of fresh weight
same,Triglycerides (TG),[3],3.73 ± 0.45 mM
same,"Ratio Vitamin E/TG, effect of the diet","[4]; diet rich in fructose vs starch diet, supplementation with FOS",lowers the ratio Vitamin E/TG
same,Vitamin E/TG,"[4]; plasma ratio, average of 10 animals ± standard deviation",2.68 ± 0.12 µg/µmol
same,Vitamin E,"[4]; plasma, average of 10 animals ± standard deviation",9.74 ± 0.92 µg/mL
